In patent US8192962B2, “Processes for detecting toxic substances” (Daikin Industries, Ltd., priority 2001, dated 2012):

Tested on: DNA repair protein genes
Test: DNA chip mRNA expression in yeast, DNA repair protein genes (Table 3)
Assay type: cell-based, Saccharomyces cerevisiae S288C
Settings: incubated two hours, concentrations as in the 1st table
Procedure: Yeast (Saccharomyces cerevisiae S288C (α SUC2mal mel gap2 CUP1)) were incubated at 25° C. on YPD medium (yeast extract 1%, polypepton 2%, glucose 2%). One of toxic chemical substances was added to the cells at logarithmic growth phase, and the cells were further incubated for two hours. Cells were cultured without any chemical substance in the same condition, and were used as control. Concentrations of the chemical substances were defined to inhibit the growth of the yeast but not lead to death.
After completion of the incubation, the culture was centrifuged to collect the cells. To the cells, sodium acetate buffer (50 mM sodium acetate, 10 mM EDTA, 1% SDS) was added, and the mixture was shaken at 65° C. for five minutes, followed by returning to room temperature, and obtaining the supernatant, of which the procedures were repeated two times. To the supernatant, ½ amount of a solution of phenol/chloroform was added, and the mixture was centrifuged to give a supernatant, which was added with an equal amount of chloroform, and the mixture was centrifuged to give a supernatant. To the supernatant, an equal amount of isopropanol containing 0.3 M sodium acetate was added, and the mixture was allowed to stand at room temperature for 30 minutes, after which the mixture was centrifuged to give a sediment of the whole RNAs. Seventy % ethanol was added to the sediment, and the mixture was again centrifuged to give a sediment, which was then dried and dissolved in water. mRNA was isolated from the whole RNAs as followings. In view of the fact that a poly A chain is attached to the 3′ terminus of mRNA, a polynucleotide having a poly T structure which was immobilized on the surface of latex beads was used to trap the mRNA, and then the mRNA was washed and eluted with spine column (Oligotex-dT30<Super>mRNA Purification Kit, Takara). Reverse transcription of the mRNA was conducted with a reverse transcriptase (Super Script II Reverse Transcriptase; catalogue No. 18064-014, GibcoBRL) using fluorescence-labeled nucleotides to give cDNAs that were introduced with Cy3-dUTP or Cy5-dUTP during the reverse transcription.
The labeled cDNAs were dissolved in TE buffer (10mM Tris-HCl/1 mM EDTA, pH8.0), and the solution was dropped on the DNA chip containing the whole genes of yeast (DNA Chip Research Inc. Japan) so that the cDNAs were hybridized on the DNA chip at 65° C. for over 12 hours. The fluoresces intensity of the DNA chip was read with a scanner, and the ratio relative to the fluorescence intensity resulting from the absence of chemical substance was estimated as the following, which is shown in Tables 1 to 9: […]

## [Cl][Hg][Cl] [(3), HgCl2]
Yeast gene YAL015C
  The level of expressed mRNA in the presence of chemical substance/The level of expressed mRNA in the absence of chemical substance: 1.7
Yeast gene YAR007C
  The level of expressed mRNA in the presence of chemical substance/The level of expressed mRNA in the absence of chemical substance: 0.8
Yeast gene YBL019W
  The level of expressed mRNA in the presence of chemical substance/The level of expressed mRNA in the absence of chemical substance: 0.7
Yeast gene YBR073W
  The level of expressed mRNA in the presence of chemical substance/The level of expressed mRNA in the absence of chemical substance: 0.9
Yeast gene YBR272C
  The level of expressed mRNA in the presence of chemical substance/The level of expressed mRNA in the absence of chemical substance: 1.3
Yeast gene YCR014C
  The level of expressed mRNA in the presence of chemical substance/The level of expressed mRNA in the absence of chemical substance: 0.8
Yeast gene YDL017W
  The level of expressed mRNA in the presence of chemical substance/The level of expressed mRNA in the absence of chemical substance: 1.2
Yeast gene YDL059C
  The level of expressed mRNA in the presence of chemical substance/The level of expressed mRNA in the absence of chemical substance: 1.4
Yeast gene YDL200C
  The level of expressed mRNA in the presence of chemical substance/The level of expressed mRNA in the absence of chemical substance: 1.2
Yeast gene YDR054C
  The level of expressed mRNA in the presence of chemical substance/The level of expressed mRNA in the absence of chemical substance: 0.7
Yeast gene YDR369C
  The level of expressed mRNA in the presence of chemical substance/The level of expressed mRNA in the absence of chemical substance: 2.4
Yeast gene YEL019C
  The level of expressed mRNA in the presence of chemical substance/The level of expressed mRNA in the absence of chemical substance: 0.3
Yeast gene YEL037C
  The level of expressed mRNA in the presence of chemical substance/The level of expressed mRNA in the absence of chemical substance: 0.9
Yeast gene YER162C
  The level of expressed mRNA in the presence of chemical substance/The level of expressed mRNA in the absence of chemical substance: 1.0
Yeast gene YFL014W
  The level of expressed mRNA in the presence of chemical substance/The level of expressed mRNA in the absence of chemical substance: 5.7
Yeast gene YGL058W
  The level of expressed mRNA in the presence of chemical substance/The level of expressed mRNA in the absence of chemical substance: 0.6
Yeast gene YGL091C
  The level of expressed mRNA in the presence of chemical substance/The level of expressed mRNA in the absence of chemical substance: 1.0
Yeast gene YGL127C
  The level of expressed mRNA in the presence of chemical substance/The level of expressed mRNA in the absence of chemical substance: 1.3
Yeast gene YGL163C
  The level of expressed mRNA in the presence of chemical substance/The level of expressed mRNA in the absence of chemical substance: 0.6
Yeast gene YGL249W
  The level of expressed mRNA in the presence of chemical substance/The level of expressed mRNA in the absence of chemical substance: 0.5
Yeast gene YGR180C
  The level of expressed mRNA in the presence of chemical substance/The level of expressed mRNA in the absence of chemical substance: 1.9
Yeast gene YGR231C
  The level of expressed mRNA in the presence of chemical substance/The level of expressed mRNA in the absence of chemical substance: 0.7
Yeast gene YGR258C
  The level of expressed mRNA in the presence of chemical substance/The level of expressed mRNA in the absence of chemical substance: 0.7
Yeast gene YHR164C
  The level of expressed mRNA in the presence of chemical substance/The level of expressed mRNA in the absence of chemical substance: 0.9
Yeast gene YIL036W
  The level of expressed mRNA in the presence of chemical substance/The level of expressed mRNA in the absence of chemical substance: 1.3
Yeast gene YIL072W
  The level of expressed mRNA in the presence of chemical substance/The level of expressed mRNA in the absence of chemical substance: 1.1
Yeast gene YIL143C
  The level of expressed mRNA in the presence of chemical substance/The level of expressed mRNA in the absence of chemical substance: 1.1
Yeast gene YIL153W
  The level of expressed mRNA in the presence of chemical substance/The level of expressed mRNA in the absence of chemical substance: 1.3
Yeast gene YIR002C
  The level of expressed mRNA in the presence of chemical substance/The level of expressed mRNA in the absence of chemical substance: 0.5
Yeast gene YJL026W
  The level of expressed mRNA in the presence of chemical substance/The level of expressed mRNA in the absence of chemical substance: 2.9
Yeast gene YJR046W
  The level of expressed mRNA in the presence of chemical substance/The level of expressed mRNA in the absence of chemical substance: 1.2
Yeast gene YJR052W
  The level of expressed mRNA in the presence of chemical substance/The level of expressed mRNA in the absence of chemical substance: 1.1
Yeast gene YKL145W
  The level of expressed mRNA in the presence of chemical substance/The level of expressed mRNA in the absence of chemical substance: 1.2
Yeast gene YLR103C
  The level of expressed mRNA in the presence of chemical substance/The level of expressed mRNA in the absence of chemical substance: 1.1
Yeast gene YLR233C
  The level of expressed mRNA in the presence of chemical substance/The level of expressed mRNA in the absence of chemical substance: 2.0
Yeast gene YLR288C
  The level of expressed mRNA in the presence of chemical substance/The level of expressed mRNA in the absence of chemical substance: 1.6
Yeast gene YML032C
  The level of expressed mRNA in the presence of chemical substance/The level of expressed mRNA in the absence of chemical substance: 1.1
Yeast gene YML058W
  The level of expressed mRNA in the presence of chemical substance/The level of expressed mRNA in the absence of chemical substance: 5.8
Yeast gene YMR035W
  The level of expressed mRNA in the presence of chemical substance/The level of expressed mRNA in the absence of chemical substance: 1.5
Yeast gene YMR072W
  The level of expressed mRNA in the presence of chemical substance/The level of expressed mRNA in the absence of chemical substance: 1.4
Yeast gene YMR096W
  The level of expressed mRNA in the presence of chemical substance/The level of expressed mRNA in the absence of chemical substance: 1.1
Yeast gene YMR284W
  The level of expressed mRNA in the presence of chemical substance/The level of expressed mRNA in the absence of chemical substance: 0.5
Yeast gene YNL213C
  The level of expressed mRNA in the presence of chemical substance/The level of expressed mRNA in the absence of chemical substance: 0.9
Yeast gene YNL250W
  The level of expressed mRNA in the presence of chemical substance/The level of expressed mRNA in the absence of chemical substance: 0.8
Yeast gene YNL261W
  The level of expressed mRNA in the presence of chemical substance/The level of expressed mRNA in the absence of chemical substance: 0.6
Yeast gene YNL312W
  The level of expressed mRNA in the presence of chemical substance/The level of expressed mRNA in the absence of chemical substance: 1.6
Yeast gene YOL043C
  The level of expressed mRNA in the presence of chemical substance/The level of expressed mRNA in the absence of chemical substance: 0.8
Yeast gene YOR005C
  The level of expressed mRNA in the presence of chemical substance/The level of expressed mRNA in the absence of chemical substance: 1.0
Yeast gene YOR386W
  The level of expressed mRNA in the presence of chemical substance/The level of expressed mRNA in the absence of chemical substance: 1.3
Yeast gene YPL022W
  The level of expressed mRNA in the presence of chemical substance/The level of expressed mRNA in the absence of chemical substance: 0.7
Yeast gene YPL164C
  The level of expressed mRNA in the presence of chemical substance/The level of expressed mRNA in the absence of chemical substance: 1.1
Yeast gene YPL194W
  The level of expressed mRNA in the presence of chemical substance/The level of expressed mRNA in the absence of chemical substance: 0.4
Yeast gene YPR025C
  The level of expressed mRNA in the presence of chemical substance/The level of expressed mRNA in the absence of chemical substance: 0.6
